Measurements: patent publication US4744985A, “Novel substances having carcinostatic and immunostimulating activity, process for preparing the same and carcinostatic agent containing the same” (Toyama Chemical Co., Ltd., priority 1979, dated 1988)

Key:
B-16 melanoma [1] = test: Antitumor activity against B-16 melanoma (tumor growth); format: in vivo, BDF1 strain mice (male, 7 weeks old); details: 20 mg/kg × 6
Description: (§1) (1) B-16 Melanoma tumor cells were subcutaneously transplanted at the armpit to BDF1 strain mice (male, 7 weeks old) in an amount of 1×10^6 cells per mouse. Subsequently, TF-133a was intraperitoneally administered to the mice in a dosage of 5 mg/kg or 10 mg/kg once a day on the first day and from the third day to the seventh day, for 6 days in total, after the transplantation of the tumor cells. In the same manner as above, 0.2 ml of a physiological salt solution was administered to the control group, and 20 mg/kg of 5-FU to the group for 5-FU administration.

B-16 melanoma [2] = test: Metastasis of B-16 melanoma tumor cells to the lungs; format: in vivo, BDF1 strain mice (male, 7 weeks old); details: 20 mg/kg × 6, 21st day
Description: as §1
(2) The transplantation of B-16 melanoma tumor cells and the administration of TF-132a, TF-133a, 5-FU and a physiological salt solution were carried out in the same manner as in above (1). On the 21st day after the transplantation of the tumor cells, the mice were dissected, and the metastasis of the melanoma tumor cells to the lungs was observed.

O=c1[nH]cc(F)c(=O)[nH]1 [5-FU]
Average tumor weight (B-16 melanoma [1]): 4.21 g | T/C (B-16 melanoma [1]): 72% | Average number of metastasis (B-16 melanoma [2]): 24.8 | Percentage of metastasis inhibition (B-16 melanoma [2]): 20%
